Experimental data from US8338611B2, “Opioid receptor antagonists” (Eli Lilly and Company, priority 2004, dated 2012).
“And” between values parts separate entries of the source, which are not always exact repeats. Equal values may be shown once. Read-outs that look alike come from different tables or passages of the source.

What was measured:
Type in all cases: biochemical
[1] = target: T1, cloned human mu opioid receptor (Homo sapiens, UniProt P35372); assay: GTP-γ-S Binding Assay, mu opioid receptor (Table 1: Receptor Binding); conditions: membranes from cells expressing cloned human mu receptor
T1 construct: expressed in transfected cells
T1 sequence (P35372 whole entry): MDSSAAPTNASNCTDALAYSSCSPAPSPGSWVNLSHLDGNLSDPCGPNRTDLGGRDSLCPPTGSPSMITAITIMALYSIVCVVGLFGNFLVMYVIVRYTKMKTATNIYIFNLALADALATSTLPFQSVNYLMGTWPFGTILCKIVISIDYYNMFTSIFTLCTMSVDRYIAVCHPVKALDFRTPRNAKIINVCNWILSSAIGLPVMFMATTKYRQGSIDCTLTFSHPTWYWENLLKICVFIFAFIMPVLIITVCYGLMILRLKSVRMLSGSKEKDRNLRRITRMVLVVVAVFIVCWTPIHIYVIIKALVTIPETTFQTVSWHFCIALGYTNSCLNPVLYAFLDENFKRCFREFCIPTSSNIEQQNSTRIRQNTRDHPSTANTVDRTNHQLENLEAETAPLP

[2] = target: T2, cloned human kappa opioid receptor (Homo sapiens, UniProt P41145); assay: GTP-γ-S Binding Assay, kappa opioid receptor (Table 1: Receptor Binding); conditions: membranes from cells expressing cloned human kappa receptor
T2 construct: expressed in transfected cells
T2 sequence (P41145 whole entry): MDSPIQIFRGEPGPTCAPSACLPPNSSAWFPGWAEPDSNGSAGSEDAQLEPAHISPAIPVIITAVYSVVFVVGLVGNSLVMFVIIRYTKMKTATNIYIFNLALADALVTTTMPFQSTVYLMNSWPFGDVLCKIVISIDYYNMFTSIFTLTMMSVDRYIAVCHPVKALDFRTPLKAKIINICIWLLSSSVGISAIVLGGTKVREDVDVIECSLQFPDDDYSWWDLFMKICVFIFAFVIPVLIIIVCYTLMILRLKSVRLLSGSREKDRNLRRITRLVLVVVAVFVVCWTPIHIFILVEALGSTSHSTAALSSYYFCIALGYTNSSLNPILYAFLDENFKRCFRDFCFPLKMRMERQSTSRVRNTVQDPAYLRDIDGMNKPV

[3] = target: T3, cloned human delta opioid receptor (Homo sapiens, UniProt P41143); assay: GTP-γ-S Binding Assay, delta opioid receptor (Table 1: Receptor Binding); conditions: membranes from cells expressing cloned human delta receptor
T3 construct: expressed in transfected cells
T3 sequence (P41143 whole entry): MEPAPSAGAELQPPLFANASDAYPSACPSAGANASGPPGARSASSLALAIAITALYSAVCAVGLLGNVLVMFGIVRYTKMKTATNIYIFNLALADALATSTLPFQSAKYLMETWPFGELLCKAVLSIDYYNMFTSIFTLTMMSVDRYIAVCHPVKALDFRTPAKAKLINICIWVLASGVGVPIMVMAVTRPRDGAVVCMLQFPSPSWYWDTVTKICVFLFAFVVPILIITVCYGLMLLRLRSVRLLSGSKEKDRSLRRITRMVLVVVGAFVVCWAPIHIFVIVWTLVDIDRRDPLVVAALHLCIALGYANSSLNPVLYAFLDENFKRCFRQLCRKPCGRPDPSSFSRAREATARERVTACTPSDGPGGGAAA
Protocol: The functional antagonist potency (Kb) of the sample compounds was determined using the GTPγS binding assay. GTPgS-based functional assays provide an in vitro measure of the activity of opioid agonists and antagonists. Opioid reference compounds or test compound are incubated with membrane homogenate from cells expressing the cloned human mu, kappa or delta opioid receptor and radiolabeled [35S]GTPgS. If the compound activates the opioid receptor, an increase in the binding of radiolabeled GTPgS is observed. […] These tests provide an in vitro measurement of the activity of the compound at human opioid receptors. GTP-γ-S Binding Assay
An SPA-based GTP-γ-S assay format was developed based on previous opioid (Emmerson et al., J. Pharm Exp Ther 278, 1121, 1996; Horng et al., Society for Neuroscience Abstracts, 434.6, 2000) and muscarinic (DeLapp et al., JPET 289, 946, 1999) assay formats. Membranes were resuspended in 20 mM HEPES, 100 mM NaCl, 5 mM MgCl2, 1 mM DTT, and 1 mM EDTA. Fifty (50) […], of GTP-γ-[35S], compound; membrane suspension (20 microgram/well), and wheat germ agglutinin coated SPA beads (1 mg/well) were added to clear bottom 96 well assay plates. GDP ([…]) was added to the membrane solution prior to addition to the assay plates. Plates were sealed and incubated for four hours at room temperature then placed in a refrigerator overnight to allow the beads to settle. Signal stability at 4° C. was determined to be >6O hours. Plates were warmed to room temperature and counted in a Wallac Microbeta scintillation counter. For antagonist assays, specific agonists were added at the following concentrations: (MOR) DAMGO 1 micromolar, (DOR) DPDPE 30 nM, (KOR) U69593 300 nM. Kb's were determined by Cheng-Prusoff equation (see Cheng and Prusoff, Biochem. Pharmacol. 22, 3099, 1973).

[4] = read-out: Receptor Binding (Ki, nM) Mu

| Ki [1, 4] | Ki [2] | Ki [3] | Compound | Ki ([1]; Receptor Binding (Ki, nM) Mu) |
| --- | --- | --- | --- | --- |
| 726 nM | > 5000 nM | 3040 nM | NC(=O)c1ccc(Sc2ccc(CNCC3CC3)cc2)nc1 [Example 10, 6-{4-[(Cyclopropylmethyl-amino)-methyl]-phenylsulfanyl}-nicotinamide] | – |
| 292 nM | 654 nM | 1820 nM | NC(=O)c1ccc([S+]([O-])c2ccc(CNCCc3ccccc3)cc2)cc1 (stereo not shown) [Example 15, 4-[4-(Phenethylamino-methyl)-benzenesulfinyl]-benzamide] | – |
| 48.7 nM | 466 nM | 278 nM | NC(=O)c1ccc(Nc2ccc(CCNCC3CCCCC3)cc2)nc1 [Example 18, 6-{4-[2-(Cyclohexylmethyl-amino)-ethyl]-phenylamino}-nicotinamide] | – |
| 73.2 nM | 402 nM | 537 nM | NC(=O)c1ccc(Nc2ccc(CNCc3ccccc3)cc2)nc1 [Example 20, 6-[4-(Benzylamino-methyl)-phenylamino]-nicotinamide] | – |
| 5.06 nM | 731 nM | 62.5 nM | CC(=O)Nc1ccc(Oc2ccc(CCNCCCc3ccccc3)cc2)cc1 [Example 29, N-(4-{4-[2-(3-Phenyl-propylamino)-ethyl]-phenoxy}-phenyl)-acetamide] | – |
| 18 nM | 163 nM | 260 nM | CC(=O)Nc1ccc(Oc2ccc(CCNCCC3CCCCC3)cc2)cc1 [Example 30, N-(4-{4-[2-(2-Cyclohexyl-ethylamino)-ethyl]-phenoxy}-phenyl)-acetamide] | – |
| > 2500 nM | > 4000 nM | > 5000 nM | CC(=O)Nc1ccc(Oc2ccc(CCNC3CCCCC3)cc2)cc1 [Example 39, N-{4-[4-(2-Cyclohexylamino-ethyl)-phenoxy]-phenyl}-acetamide] | – |
| 912 nM | > 4000 nM | > 5000 nM | CC(=O)Nc1ccc(Oc2ccc(CCNCc3ccccc3C)cc2)cc1 [Example 40, N-(4-{4-[2-(2-Methyl-benzylamino)-ethyl]-phenoxy}-phenyl)-acetamide] | – |

Continued, compound first:

| Compound | Ki [1, 4] | Ki [2] | Ki [3] | Ki ([1]; Receptor Binding (Ki, nM) Mu) |
| --- | --- | --- | --- | --- |
| 6-{4-[(2-Pyridin-4-yl-ethylamino)-methyl]-phenylsulfanyl}-nicotinamide [Example 19] | 107 nM | 137 nM | 858 nM | – |
| CC(=O)c1ccc(Oc2ccc(CCNCc3ccccc3)cc2)cc1 [Example 5, 1-{4-[4-(2-Benzylamino-ethyl)-phenoxy]-phenyl}-ethanone] | 1310 nM | > 5000 nM | > 5000 nM | – |
| CC(=O)Oc1ccc(Oc2ccc(CCNCc3ccccc3)cc2)cc1 [Example 6, Acetic acid 4-[4-(2-benzylamino-ethyl)-phenoxy]phenyl ester] | 229 nM | 1620 nM | 3250 nM | – |
| CC(C)CCNCc1ccc(Sc2ccc(C(N)=O)cn2)cc1 [Example 13, 6-{4-[(3-Methyl-butylamino)-methyl]-phenylsulfanyl}-nicotinamide] | 563 nM | 2440 nM | 3520 nM | – |
| NC(=O)c1ccc(S(=O)(=O)c2ccc(CNCCc3ccccc3)cc2)cc1 [Example 14, 4-[4-(Phenethylamino-methyl)-benzenesulfonyl]-benzamide] | 86.4 nM | 1020 nM | 714 nM | – |
| NCCc1ccc(Nc2ccc(C(N)=O)cn2)cc1 [Example 16, 6-[4-(2-Amino-ethyl)-phenylamino]-nicotinamide] | – | 1020 nM | 270 nM | 45.4 nM |
| NC(=O)c1ccc(Nc2ccc(CCNCc3ccccc3)cc2)nc1 [Example 17, 6-[4-(2-Benzylamino-ethyl)-phenylamino]-nicotinamide] | 1350 nM | 761 nM | > 5000 nM | – |
| NC(=O)c1ccc(Nc2ccc(CNCC3CCCCC3)cc2)nc1 [Example 21, 6-{4-[(Cyclohexylmethyl-amino)-methyl]-phenylamino}-nicotinamide] | > 3000 nM | > 4000 nM | > 5000 nM | – |
| NC(=O)c1ccc(Nc2ccc(CNCCc3ccccc3)cc2)nc1 [Example 22, 6-[4-(Phenethylamino-methyl)-phenylamino]-nicotinamide] | > 3000 nM | > 4000 nM | > 5000 nM | – |
| CC(=O)Nc1ccc(Oc2ccc(CCNC(=O)OC(C)(C)C)cc2)cc1 [Example 24, {2-[4-(4-Acetylamino-phenoxy)-phenyl]-ethyl}-carbamic acid tert-butyl ester] | 198 nM | 2670 nM | 4020 nM | – |
| CC(=O)Nc1ccc(Oc2ccc(CCN)cc2)cc1 [Example 25, N-{4-[4-(2-Amino-ethyl)-phenoxy]-phenyl}-acetamide] | – | 3970 nM | 2510 nM | 67.5 nM |
| CCCCCCNCCc1ccc(Oc2ccc(NC(C)=O)cc2)cc1 [Example 27, N-{4-[4-(2-Hexylamino-ethyl)-phenoxy]-phenyl}-acetamide] | 200 nM and 64.3 nM | – | – | – |
| CC(=O)Nc1ccc(Oc2ccc(CCNCc3cccs3)cc2)cc1 [Example 28, N-[4-(4-{2-[(Thiophen-2-ylmethyl)-amino]-ethyl}-phenoxy)-phenyl]-acetamide] | 26.9 nM | 150 nM | 469 nM | – |
| CC(=O)Nc1ccc(Oc2ccc(CCNCc3ccco3)cc2)cc1 [Example 36, N-[4-(4-{2-[(Furan-2-ylmethyl)-amino]-ethyl}-phenoxy)-phenyl]-acetamide] | > 2500 nM | > 4000 nM | > 5000 nM | – |
| CC(=O)Nc1ccc(Oc2ccc(CCNCc3cccc(Cl)c3)cc2)cc1 [Example 37, N-(4-{4-[2-(3-Chloro-benzylamino)-ethyl]-phenoxy}-phenyl)-acetamide] | 1750 nM | > 4000 nM | > 5000 nM | – |
| CC(=O)Nc1ccc(Oc2ccc(CCNCC(C)C)cc2)cc1 [Example 38, N-{4-[4-(2-Isobutylamino-ethyl)-phenoxy]-phenyl}-acetamide] | 1720 nM | > 4000 nM | > 5000 nM | – |
